For orientation: pKa means the pH at which an ionisable group is half protonated. A low value points to a group that gives up its proton readily.

The text below walks through data of article PMC8906844 (Organic & biomolecular chemistry, 2021).

One series can be described thus: pKa measurement. In kind it is physicochemical. As to conditions: weak diprotic acid.
The target in the next series is LAR (Homo sapiens, UniProt P10586). The conditions noted are these: 22 °C and pH 6.5; originally obtained; cited from earlier work.
Sequence of LAR (P10586 30-1907): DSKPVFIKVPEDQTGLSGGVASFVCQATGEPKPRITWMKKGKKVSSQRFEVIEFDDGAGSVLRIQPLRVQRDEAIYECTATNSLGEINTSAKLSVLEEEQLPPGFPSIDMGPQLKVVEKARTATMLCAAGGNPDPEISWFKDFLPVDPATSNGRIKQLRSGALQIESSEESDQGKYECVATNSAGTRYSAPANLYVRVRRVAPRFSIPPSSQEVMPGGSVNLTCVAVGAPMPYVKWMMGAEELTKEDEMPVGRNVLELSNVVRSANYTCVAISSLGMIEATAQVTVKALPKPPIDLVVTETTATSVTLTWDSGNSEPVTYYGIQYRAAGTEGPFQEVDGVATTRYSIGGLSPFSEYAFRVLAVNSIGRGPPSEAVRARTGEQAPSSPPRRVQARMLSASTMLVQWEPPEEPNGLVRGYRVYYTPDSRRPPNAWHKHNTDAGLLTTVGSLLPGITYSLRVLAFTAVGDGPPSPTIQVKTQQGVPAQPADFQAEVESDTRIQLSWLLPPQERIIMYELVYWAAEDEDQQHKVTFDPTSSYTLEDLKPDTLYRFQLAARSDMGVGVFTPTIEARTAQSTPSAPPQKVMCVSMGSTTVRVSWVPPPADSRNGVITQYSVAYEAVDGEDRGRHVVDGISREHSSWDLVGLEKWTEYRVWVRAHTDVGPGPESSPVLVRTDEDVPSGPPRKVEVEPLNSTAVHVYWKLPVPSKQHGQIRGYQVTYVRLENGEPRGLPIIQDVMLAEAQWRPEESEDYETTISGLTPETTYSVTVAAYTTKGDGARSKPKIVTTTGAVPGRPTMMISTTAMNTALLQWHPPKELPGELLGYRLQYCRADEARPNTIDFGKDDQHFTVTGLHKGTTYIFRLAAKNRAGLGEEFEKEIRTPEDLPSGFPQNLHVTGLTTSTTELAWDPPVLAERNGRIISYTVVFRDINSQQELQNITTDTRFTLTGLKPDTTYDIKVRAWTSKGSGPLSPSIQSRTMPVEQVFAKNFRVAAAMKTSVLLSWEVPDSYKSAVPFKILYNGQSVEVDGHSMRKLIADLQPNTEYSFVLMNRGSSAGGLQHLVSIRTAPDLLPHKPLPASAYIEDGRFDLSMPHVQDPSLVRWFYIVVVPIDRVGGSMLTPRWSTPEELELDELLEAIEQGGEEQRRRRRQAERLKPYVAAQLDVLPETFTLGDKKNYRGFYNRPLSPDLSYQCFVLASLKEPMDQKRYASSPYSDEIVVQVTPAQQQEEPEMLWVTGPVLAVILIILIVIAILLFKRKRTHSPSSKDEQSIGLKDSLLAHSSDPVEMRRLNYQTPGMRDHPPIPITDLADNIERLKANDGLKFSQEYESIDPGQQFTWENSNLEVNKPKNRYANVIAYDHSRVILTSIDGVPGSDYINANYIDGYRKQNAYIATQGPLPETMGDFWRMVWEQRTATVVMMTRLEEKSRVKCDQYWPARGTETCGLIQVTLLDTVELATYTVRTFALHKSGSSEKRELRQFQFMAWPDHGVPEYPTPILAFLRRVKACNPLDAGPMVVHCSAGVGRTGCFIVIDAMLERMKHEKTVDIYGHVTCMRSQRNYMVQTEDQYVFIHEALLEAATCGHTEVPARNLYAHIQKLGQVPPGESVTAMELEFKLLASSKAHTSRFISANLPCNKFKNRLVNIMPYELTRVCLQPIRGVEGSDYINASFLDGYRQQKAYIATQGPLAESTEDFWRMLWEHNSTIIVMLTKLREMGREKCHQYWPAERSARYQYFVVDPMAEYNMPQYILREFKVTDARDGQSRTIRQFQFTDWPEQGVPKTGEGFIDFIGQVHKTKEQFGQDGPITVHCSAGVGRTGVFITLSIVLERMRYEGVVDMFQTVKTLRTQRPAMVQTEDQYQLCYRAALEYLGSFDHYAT

In the case of `CC1(C)Cc2c(O)c(C=O)c3c(c2C1)C(=O)OC(O)C3` (stereo not drawn) [illudalic acid], the pKa in the series “pKa measurement” (pKa (first), first value) is 5.42; in “pKa measurement” (pKa (second), second value), 6.6. Also, the “t^∞1/2” value at LAR is given as 0.5 min.
